These results are taken from US9980948B2, “Azaindole derivative having AMPK-activating activity” (Shionogi & Co., Ltd., priority 2014, dated 2018).

The experiment concerns the target T1, Human AMPK α2β2γ1 (Homo sapiens, UniProt O43741+P54646).
T1 construct: The full length cDNAs of human AMPK β2 (NM_005399.3) and human AMPK α2 (NM_006252.3); The full length cDNAs of human AMPK β2 (NM_005399.3); the full length cDNA of human AMPK γ1 (NM_002733.3) had been inserted into pET28b(+); 6xHis (N); made in house; host or cells: Escherichia coli BL21 CodonPlus (DE3)-RTL (AMPK); BL21 Star (DE3) (CaMKKβ)
The experiment in a line: Test Example 2: evaluation of an activator for AMP-activated protein kinase (AMPK), human AMPK α2β2γ1 phosphorylated with CaMKK2, FL-Peptide 7 mobility shift. The format is biochemical. The conditions noted are these: for EC150 (compound concentration showing 150% relative to the control (100%)): human AMPK α2β2γ1, 0.2 mM ATP final, 25° C., 2 hours; for Emax: read-out: Emax (maximum rate of increase in activity within the measurement range). As to the method: The full length cDNAs of human AMPK β2 (NM_005399.3) and human AMPK α2 (NM_006252.3) were inserted into the MCS1 and MCS2 of the pETDuet-1 vector to prepare a human AMPK β2 and human AMPK α2 (6× His tag at the 5′ terminus) expressing plasmid. The plasmid was cotransfected with an expression plasmid, in which the full length cDNA of human AMPK γ1 (NM_002733.3) had been inserted into pET28b(+), into BL21 CodonPlus (DE3)-RTL to obtain an expression strain. The expression strain was cultured in TB medium, followed by induction with 0.5 mM IPTG, and cultured at 25° C. for 3 hours and then harvested.
An expression vector, in which the full length cDNA of human CAMKK β (NM_172226.1) had been inserted into pGEX-6P-3, was transfected into BL21 Star (DE3). The expression strain was cultured in TB medium, followed by induction with 0.5 mM IPTG, and cultured at 25° C. for 3 hours and then harvested.
Thus, phosphorylation treatment was carried out as pretreatment.
Human AMPK α2β2γ1 in an amount to give a conversion rate of approximately 10% by reaction for 2 hours, and CaMKK2 in an amount capable of sufficiently imparting activity to AMPK for one hour were mixed in a buffer solution consisting of a 50 mM HEPES-NaOH buffer solution (pH 7.0), 100 mM NaCl, 5 mM magnesium chloride, 0.1% bovine serum albumin, 0.2 mM sodium orthovanadate(V), 1 mM ethylene glycol-bis(2-aminoethyl ether)-N,N,N′,N′-tetraacetic acid (EGTA), 5 mM disodium β-glycerophosphate, 1 mM dithiothreitol and 0.2 mM ATP, and the obtained liquid was left to stand at 25° C. for 1 to 1.5 hours to sufficiently phosphorylate AMPK.
The obtained liquid was left to stand for 10 minutes.
The obtained liquid was allowed to react at 25° C. for 2 hours, and 10 μl of 20 mM EDTA was then added thereto to stop the reaction.
To detect phosphorylated fluorescent substrates, the reaction liquid was applied to a measuring device, LabChip EZ Reader II manufactured by Caliper Life Science, Inc., for detecting fluorescence by using differences in mobility due to differences in charge. The setting conditions for the device were pressure, −1.5 PSI; upstream voltage, −2250 V; downstream voltage, −400 V; post sample buffer sip time, 40 seconds; final delay, 120 seconds; and peak order, Product First.
A conversion rate was calculated from the peak heights of the resulting substrate and product. The conversion rate when not containing a compound was used as a control, and a concentration dependent curve was made by plotting the rate of increase in activity to the control at each concentration of a compound.

[1] abbreviates: human AMPK α2β2γ1, relative to control (100%).

Molecules are shown by their SMILES.

T1 sequence (P54646 whole entry): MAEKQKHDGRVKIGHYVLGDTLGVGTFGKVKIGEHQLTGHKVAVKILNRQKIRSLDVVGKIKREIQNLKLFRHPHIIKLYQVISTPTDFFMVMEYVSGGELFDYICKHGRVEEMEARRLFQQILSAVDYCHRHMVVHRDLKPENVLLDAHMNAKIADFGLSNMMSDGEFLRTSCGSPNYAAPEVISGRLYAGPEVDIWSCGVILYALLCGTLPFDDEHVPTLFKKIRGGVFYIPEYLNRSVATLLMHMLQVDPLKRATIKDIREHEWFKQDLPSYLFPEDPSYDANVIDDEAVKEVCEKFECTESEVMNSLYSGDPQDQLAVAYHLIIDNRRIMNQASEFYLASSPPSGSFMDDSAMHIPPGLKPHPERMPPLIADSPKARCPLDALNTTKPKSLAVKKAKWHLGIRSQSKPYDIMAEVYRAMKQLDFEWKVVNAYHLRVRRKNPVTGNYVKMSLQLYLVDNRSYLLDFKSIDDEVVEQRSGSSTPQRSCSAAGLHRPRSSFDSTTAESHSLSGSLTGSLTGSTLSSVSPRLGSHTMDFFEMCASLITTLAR
T1 sequence (O43741 whole entry): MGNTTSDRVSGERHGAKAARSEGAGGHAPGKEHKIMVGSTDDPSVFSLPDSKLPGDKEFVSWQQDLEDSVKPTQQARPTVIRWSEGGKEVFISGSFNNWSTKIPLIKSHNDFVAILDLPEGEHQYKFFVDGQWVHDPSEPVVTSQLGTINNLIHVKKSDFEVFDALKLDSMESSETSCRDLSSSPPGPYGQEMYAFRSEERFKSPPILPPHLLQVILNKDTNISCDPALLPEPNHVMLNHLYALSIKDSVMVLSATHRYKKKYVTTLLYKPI
T1 sequence (P54619 whole entry partner): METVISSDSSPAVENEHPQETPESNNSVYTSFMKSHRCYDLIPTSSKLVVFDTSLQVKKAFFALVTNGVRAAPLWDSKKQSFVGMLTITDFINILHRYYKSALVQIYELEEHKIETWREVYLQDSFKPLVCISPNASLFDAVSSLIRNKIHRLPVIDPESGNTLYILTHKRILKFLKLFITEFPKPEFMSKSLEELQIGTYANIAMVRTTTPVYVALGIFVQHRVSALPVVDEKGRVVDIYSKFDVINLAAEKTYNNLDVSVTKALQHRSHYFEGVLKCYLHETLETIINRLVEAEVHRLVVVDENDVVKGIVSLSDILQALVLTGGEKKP

On to `Cn1cc(-c2ccc(-c3nc4c(C#N)c(O[C@@H]5CO[C@H]6[C@@H]5OC[C@H]6O)[nH]c4cc3Cl)cc2)cn1` [Compound I-2-11], for which the “EC150 (compound concentration showing 150% relative to the control (100%))” value stood at 40 nM. Under setting [1], the Emax is 867%.
In the same order, the values of `N#Cc1cc2[nH]c(O[C@@H]3CO[C@H]4[C@@H]3OC[C@H]4O)cc2nc1-c1ccc(C2=CCOCC2)cc1` [Compound I-2-19] are 1.6 nM and 916%.
In the same order, the values of `Cn1ccc2cc(-c3nc4c(C#N)c(O[C@@H]5CO[C@H]6[C@@H]5OC[C@H]6O)[nH]c4cc3Cl)ccc21` [Compound I-2-28] are 57 nM and 446%.
In the same order, the values of `O=C(CO)N1CC=C(c2ccc(-c3nc4cc(O[C@@H]5CO[C@H](CO)C5)[nH]c4cc3F)cc2)CC1` [Compound I-2-33] are 2.5 nM and 511%.
Turning to `O[C@@H]1CO[C@H]2[C@@H]1OC[C@H]2Oc1cc2nc(-c3ccc(C4(O)CCC4)cc3)c(F)cc2[nH]1` [Compound I-2-34], the “EC150 (compound concentration showing 150% relative to the control (100%))” value was 20 nM. The maximum response (Emax) under setting [1] came to 495%.
Take `N#Cc1cc2[nH]c(O[C@@H]3CO[C@H]4[C@@H]3OC[C@H]4O)cc2nc1-c1ccc(N2CCOCC2)cc1F` [Compound I-2-42]: the “EC150 (compound concentration showing 150% relative to the control (100%))” value is 48 nM. In addition, the Emax under setting [1] came to 481%.
For `N#Cc1cc2[nH]c(O[C@@H]3CO[C@H]4[C@@H]3OC[C@H]4O)cc2nc1-c1ccc(-c2ccccc2)cc1` [Compound I-2-45] the same measures were 19 nM and 492%.
Regarding `N#Cc1c(O[C@@H]2CO[C@H]3[C@@H]2OC[C@H]3O)[nH]c2cc(Cl)c(-c3ccc(-c4cnn(CCO)c4)cc3)nc12` [Compound I-2-46], the “EC150 (compound concentration showing 150% relative to the control (100%))” value is 77 nM. For the same molecule, the maximal effect (Emax) under setting [1] worked out at 510%.
For `O[C@@H]1CO[C@H]2[C@@H]1OC[C@H]2Oc1cc2nc(-c3ccc(C4CCCCO4)cc3)c(F)cc2[nH]1` (stereo partly drawn) [Compound I-2-57] the same measures were 10 nM and 484%.
For `O[C@@H]1CO[C@H]2[C@@H]1OC[C@H]2Oc1cc2nc(-c3ccc([C@@H]4C[C@@H](O)[C@@H](O)CO4)cc3)c(Cl)cc2[nH]1` [Compound I-2-61-a] the same measures were 6.4 nM and 442%.
In the same order, the values of `O[C@@H]1CO[C@H]2[C@@H]1OC[C@H]2Oc1cc2nc(-c3ccc([C@H]4C[C@H](O)[C@H](O)CO4)cc3)c(F)cc2[nH]1` [Compound I-2-61-b] are 6.4 nM and 442%.
For the molecule `O[C@@H]1CO[C@H]2[C@@H]1OC[C@H]2Oc1cc2nc(-c3ccc(C4CCCO4)cc3)c(F)cc2[nH]1` (stereo partly drawn) [Compound I-2-68], the “EC150 (compound concentration showing 150% relative to the control (100%))” value is reported as 26 nM. The Emax under setting [1] stood at 382%.
For `Cn1ncc2cc(-c3nc4cc(O[C@@H]5CO[C@H]6[C@@H]5OC[C@H]6O)[nH]c4cc3F)ccc21` [Compound I-2-69] the same measures were 58 nM and 521%.
In the same order, the values of `Cn1c(-c2nc3cc(O[C@@H]4CO[C@H]5[C@@H]4OC[C@H]5O)[nH]c3cc2F)cc2ccccc21` [Compound I-2-70] are 38 nM and 511%.
In the same order, the values of `COc1ccc(-c2nc3cc(O[C@@H]4CO[C@H]5[C@@H]4OC[C@H]5O)[nH]c3cc2F)cc1` [Compound I-2-71] are 89 nM and 446%.
With `COc1nc(N2CC[C@@H](O)C2)ccc1-c1nc2cc(O[C@@H]3CO[C@H]4[C@@H]3OC[C@H]4O)[nH]c2cc1F` [Compound I-2-78], the “EC150 (compound concentration showing 150% relative to the control (100%))” value is 7.1 nM. Besides, the Emax under setting [1] was 490%.
Take `CS(=O)(=O)N1C2C=C(c3ccc(-c4nc5cc(O[C@@H]6CO[C@H]7[C@@H]6OC[C@H]7O)[nH]c5cc4F)cc3)CC1CC2` (stereo partly drawn) [Compound I-3-4]: the “EC150 (compound concentration showing 150% relative to the control (100%))” value was 30 nM. For the same molecule, the “Emax (maximum rate of increase in activity within the measurement range)” value under setting [1] was found to be 568%.
For `O[C@@H]1CO[C@H]2[C@@H]1OC[C@H]2Oc1cc2nc(-c3ccc(OCCCN4CCOCC4)cc3)c(F)cc2[nH]1` [Compound I-3-6], the “EC150 (compound concentration showing 150% relative to the control (100%))” value was determined as 74 nM. Under setting [1], the Emax was 475%.
For `CC(=O)Nc1nc(-c2ccc(-c3nc4cc(O[C@@H]5CO[C@H]6[C@@H]5OC[C@H]6O)[nH]c4cc3F)cc2)cs1` [Compound I-3-10] the same measures were 7.9 nM and 391%.
For `CS(C)(=O)=Nc1ccc(-c2ccc(-c3nc4cc(O[C@@H]5CO[C@H]6[C@@H]5OC[C@H]6O)[nH]c4cc3F)cc2)nc1` [Compound I-3-12] the same measures were 4.2 nM and 396%.
For `O[C@@H]1CO[C@H]2[C@@H]1OC[C@H]2Oc1cc2nc(-c3ccc4scnc4c3)c(F)cc2[nH]1` [Compound I-3-14] the same measures were 150 nM and 430%.
Regarding `N#Cc1cc2[nH]c(O[C@@H]3CO[C@H]4[C@@H]3OC[C@H]4O)cc2nc1NC1CCc2cc(F)cc(F)c21` (stereo partly drawn) [Compound I-3-17], the “EC150 (compound concentration showing 150% relative to the control (100%))” value is given as 40 nM. Besides, the Emax under setting [1] came out at 492%.
In the same order, the values of `O[C@@H]1CO[C@H]2[C@@H]1OC[C@H]2Oc1cc2nc(NC3CCc4cc(F)cc(F)c43)c(C(F)(F)F)cc2[nH]1` (stereo partly drawn) [Compound I-3-19] are 120 nM and 543%.
As to `O[C@@H]1CO[C@H]2[C@@H]1OC[C@H]2Oc1cc2nc(-c3ccc(-c4ccsc4)cc3)c(F)cc2[nH]1` [Compound I-3-23], the “EC150 (compound concentration showing 150% relative to the control (100%))” value is 5 nM. For the same molecule, the maximal effect (Emax) under setting [1] came to 510%.
In the same order, the values of `O[C@@H]1CO[C@H]2[C@@H]1OC[C@H]2Oc1cc2nc(-c3ccsc3)c(F)cc2[nH]1` [Compound I-3-24] are 340 nM and 315%.
`Cn1cc(-c2ccc(-c3nc4cc(O[C@@H]5CO[C@H]6[C@@H]5OC[C@H]6O)[nH]c4cc3F)cc2)cn1` [Compound I-3-25]: the “EC150 (compound concentration showing 150% relative to the control (100%))” value was 6.6 nM. Also, the Emax under setting [1] is 493%.
In the same order, the values of `COc1nc(N2CCCC2)ccc1-c1nc2cc(O[C@@H]3CO[C@H]4[C@@H]3OC[C@H]4O)[nH]c2cc1F` [Compound I-3-27] are 12 nM and 633%.
For `COc1cc(F)c(-c2nc3cc(O[C@@H]4CO[C@H]5[C@@H]4OC[C@H]5O)[nH]c3cc2F)c(F)c1` [Compound I-3-28] the same measures were 87 nM and 430%.
For `O=C(CO)NCCCOc1ccc(-c2nc3cc(O[C@@H]4CO[C@H]5[C@@H]4OC[C@H]5O)[nH]c3cc2F)cc1` [Compound I-3-31] the same measures were 55 nM and 505%.
In the case of `O[C@@H]1CO[C@H]2[C@@H]1OC[C@H]2Oc1cc2nc(-c3ccc(N4CCOCC4)cc3F)c(C(F)(F)F)cc2[nH]1` [Compound I-3-39], the “EC150 (compound concentration showing 150% relative to the control (100%))” value is 200 nM. For the same molecule, the Emax under setting [1] is 491%.
